Literature values in publication PMC10757118, “HS‐10352 in hormone receptor‐positive, HER2‐negative advanced breast cancer: A phase 1 dose‐escalation trial” (Cancer Medicine, 2023).

Legend:
[1] = tested on: HR‐positive, HER2‐negative breast cancer with altered AKT pathways; design: method as in ref 35 = [35]; 35 Turner N , Oliveira M , Howell SJ , et al. Abstract GS3‐04: GS3‐04 Capivasertib and fulvestrant for patients with aromatase inhibitor‐resistant hormone receptor‐positive/human epidermal growth fact; conditions: CAPItello‐291, altered AKT pathways ref 35
[2] = tested on: PIK3CA‐mutant breast cancer; design: method as in PMID 29066505; conditions: PIK3CA‐mutant breast cancer patients ref 31
[3] = tested on: PIK3CA‐mutant, HR‐positive, HER2‐negative breast cancer; design: method as in ref 33 = [33]; 33 Juric D , Kalinsky K , Oliveira M , et al. Abstract OT1‐08‐04: a first‐in‐human phase Ia dose escalation study of GDC‐0077, a p110a‐selective and mutant‐degrading PI3K inhibitor, in patients with P; conditions: single agent, HER2‐negative breast cancer patients ref 33
[4] = tested on: ER‐positive, HER2‐negative breast cancer; design: method as in PMID 29401002; conditions: monotherapy, HER2‐negative breast cancer patients ref 19

For `C[C@]12CC[C@@H]3c4ccc(O)cc4C[C@@H](CCCCCCCCC[S+]([O-])CCCC(F)(F)C(F)(F)F)[C@H]3[C@@H]1CC[C@@H]2O` (some centres unmarked) [fulvestrant without capivasertib], the ORR [1] is given as 9.7% and the “median PFS” value [1] is given as 3.1 months.

For `NC1(C(=O)N[C@@H](CCO)c2ccc(Cl)cc2)CCN(c2ncnc3[nH]ccc23)CC1` [Capivasertib], the ORR [2] is given as 4%.

In the case of `C[C@H](Nc1ccc2c(c1)OCCn1cc(N3C(=O)OC[C@H]3C(F)F)nc1-2)C(N)=O` [GDC‐0077], the “confirmed ORR” value [3] is given as 20%.

In the case of `Cc1nc(NC(=O)N2CCC[C@H]2C(N)=O)sc1-c1ccnc(C(C)(C)C(F)(F)F)c1` [alpelisib], the ORR [4] is listed as 4.3%.
